Values joined by “and” are separate entries in the source; they are usually repeats but may differ in a detail not shown here. Identical values can stand only once.
Experiments:
TK-10 [1] = experiment: Growth inhibition of human TK-10 cells incubated for 48 hrs by sulforhodamine B assay; format: functional; details: for GI50 / TGI: TK-10
[2] = biological target: Fibroblast growth factor receptor 2 (Homo sapiens) (UniProt P21802); experiment: Inhibition of human FGFR2 at 10 uM using myelin basic protein as substrate incubated for 40 mins in presence of [gamma33P]ATP by scintillation counting method relative to control
A549 = experiment: Growth inhibition of human A549/ATCC cells assessed as growth percentage at 0.1 uM incubated for 48 hrs by sulforhodamine B assay relative to control; format: functional; details: read-out: Activity
SR = experiment: Growth inhibition of human SR cells assessed as growth percentage at 0.01 uM incubated for 48 hrs by sulforhodamine B assay relative to control; format: functional; details: read-out: Activity
MOLT-4 = experiment: Growth inhibition of human MOLT-4 cells assessed as growth percentage at 100 uM incubated for 48 hrs by sulforhodamine B assay relative to control; format: functional; details: read-out: Activity
MCF7 = experiment: Growth inhibition of human MCF7 cells assessed as growth percentage at 1 uM incubated for 48 hrs by sulforhodamine B assay relative to control; format: functional; details: read-out: Activity
LOX IMVI = experiment: Growth inhibition of human LOX IMVI cells assessed as growth percentage at 0.01 uM incubated for 48 hrs by sulforhodamine B assay relative to control; format: functional; details: read-out: Activity
[3] = AUC (0 to infinity) in Sprague-Dawley rat at 10 mg/kg, iv measured up to 24 hrs by LC-MS/MS analysis; format: ADME, organism-based; design: route intravenous, dose 10 mg/kg, time <=24; details: in vivo
HOP-92 = experiment: Growth inhibition of human HOP-92 cells incubated for 48 hrs by sulforhodamine B assay; format: functional
K562 = experiment: Growth inhibition of human K562 cells assessed as growth percentage at 100 uM incubated for 48 hrs by sulforhodamine B assay relative to control; format: functional; details: read-out: Activity
SF-295 = experiment: Growth inhibition of human SF-295 cells assessed as growth percentage at 100 uM incubated for 48 hrs by sulforhodamine B assay relative to control; format: functional; details: read-out: Activity
HCC 2998 [4] = experiment: Growth inhibition of human HCC 2998 cells assessed as growth percentage at 100 uM incubated for 48 hrs by sulforhodamine B assay relative to control; format: functional; details: read-out: Activity
HCC 2998 [5] = experiment: Growth inhibition of human HCC 2998 cells assessed as growth percentage at 0.01 uM incubated for 48 hrs by sulforhodamine B assay relative to control; format: functional; details: read-out: Activity
HCT-15 = experiment: Growth inhibition of human HCT-15 cells assessed as growth percentage at 0.01 uM incubated for 48 hrs by sulforhodamine B assay relative to control; format: functional; details: read-out: Activity
Malme-3M [6] = experiment: Growth inhibition of human Malme-3M cells assessed as growth percentage at 10 uM incubated for 48 hrs by sulforhodamine B assay relative to control; format: functional; details: read-out: Activity
NCI-H460 [7] = experiment: Growth inhibition of human NCI-H460 cells incubated for 48 hrs by sulforhodamine B assay; format: functional
SN12C [8] = experiment: Growth inhibition of human SN12C cells assessed as growth percentage at 1 uM incubated for 48 hrs by sulforhodamine B assay relative to control; format: functional; details: read-out: Activity
Malme-3M [9] = experiment: Growth inhibition of human Malme-3M cells incubated for 48 hrs by sulforhodamine B assay; format: functional; details: for GI50: 48 h
Hs-578T = experiment: Growth inhibition of human Hs-578T cells assessed as growth percentage at 0.1 uM incubated for 48 hrs by sulforhodamine B assay relative to control; format: functional; details: read-out: Activity
[10] = biological target: Insulin-like growth factor 1 receptor (Homo sapiens) (UniProt P08069); experiment: Inhibition of human IGF1R at 10 uM using myelin basic protein as substrate incubated for 40 mins in presence of [gamma33P]ATP by scintillation counting method relative to control
NCI-H460 [11] = experiment: Growth inhibition of human NCI-H460 cells assessed as growth percentage at 0.1 uM incubated for 48 hrs by sulforhodamine B assay relative to control; format: functional; details: read-out: Activity
TK-10 [12] = experiment: Growth inhibition of human TK-10 cells assessed as growth percentage at 0.1 uM incubated for 48 hrs by sulforhodamine B assay relative to control; format: functional; details: read-out: Activity
UACC-62 = experiment: Growth inhibition of human UACC-62 cells assessed as growth percentage at 1 uM incubated for 48 hrs by sulforhodamine B assay relative to control; format: functional; details: read-out: Activity
SK-MEL-5 = experiment: Growth inhibition of human SK-MEL-5 cells incubated for 48 hrs by sulforhodamine B assay; format: functional; details: for GI50 / TGI: SK-MEL-5; for CC50: read-out: LC50 (the source's name)
HCT-116 = experiment: Growth inhibition of human HCT-116 cells assessed as growth percentage at 0.1 uM incubated for 48 hrs by sulforhodamine B assay relative to control; format: functional; details: read-out: Activity
SN12C [13] = experiment: Growth inhibition of human SN12C cells assessed as growth percentage at 0.1 uM incubated for 48 hrs by sulforhodamine B assay relative to control; format: functional; details: read-out: Activity
SNB-75 = experiment: Growth inhibition of human SNB-75 cells assessed as growth percentage at 1 uM incubated for 48 hrs by sulforhodamine B assay relative to control; format: functional; details: read-out: Activity
MDA-MB-435 = experiment: Growth inhibition of human MDA-MB-435 cells assessed as growth percentage at 0.01 uM incubated for 48 hrs by sulforhodamine B assay relative to control; format: functional; details: read-out: Activity
SW-620 = experiment: Growth inhibition of human SW-620 cells assessed as growth percentage at 0.01 uM incubated for 48 hrs by sulforhodamine B assay relative to control; format: functional; details: read-out: Activity
[14] = AUC (0 to infinity) in Sprague-Dawley rat at 10 mg/kg, po measured up to 24 hrs by LC-MS/MS analysis; format: ADME, organism-based; design: route oral, dose 10 mg/kg, time <=24; details: in vivo
RPMI-8226 = experiment: Growth inhibition of human RPMI-8226 cells assessed as growth percentage at 0.01 uM incubated for 48 hrs by sulforhodamine B assay relative to control; format: functional; details: read-out: Activity
HL-60(TB) = experiment: Growth inhibition of human HL-60(TB) cells incubated for 48 hrs by sulforhodamine B assay; format: functional
ACHN = experiment: Growth inhibition of human ACHN cells assessed as growth percentage at 0.1 uM incubated for 48 hrs by sulforhodamine B assay relative to control; format: functional; details: read-out: Activity
OVCAR-5 = experiment: Growth inhibition of human OVCAR-5 cells assessed as growth percentage at 10 uM incubated for 48 hrs by sulforhodamine B assay relative to control; format: functional; details: read-out: Activity
SF-539 = experiment: Growth inhibition of human SF-539 cells assessed as growth percentage at 0.01 uM incubated for 48 hrs by sulforhodamine B assay relative to control; format: functional; details: read-out: Activity
SK-MEL-2 = experiment: Growth inhibition of human SK-MEL-2 cells assessed as growth percentage at 100 uM incubated for 48 hrs by sulforhodamine B assay relative to control; format: functional; details: read-out: Activity
SK-MEL-28 = experiment: Growth inhibition of human SK-MEL-28 cells assessed as growth percentage at 100 uM incubated for 48 hrs by sulforhodamine B assay relative to control; format: functional; details: read-out: Activity

Sequence of Fibroblast growth factor receptor 2 (Homo sapiens) (P21802 22-821 limits assumed): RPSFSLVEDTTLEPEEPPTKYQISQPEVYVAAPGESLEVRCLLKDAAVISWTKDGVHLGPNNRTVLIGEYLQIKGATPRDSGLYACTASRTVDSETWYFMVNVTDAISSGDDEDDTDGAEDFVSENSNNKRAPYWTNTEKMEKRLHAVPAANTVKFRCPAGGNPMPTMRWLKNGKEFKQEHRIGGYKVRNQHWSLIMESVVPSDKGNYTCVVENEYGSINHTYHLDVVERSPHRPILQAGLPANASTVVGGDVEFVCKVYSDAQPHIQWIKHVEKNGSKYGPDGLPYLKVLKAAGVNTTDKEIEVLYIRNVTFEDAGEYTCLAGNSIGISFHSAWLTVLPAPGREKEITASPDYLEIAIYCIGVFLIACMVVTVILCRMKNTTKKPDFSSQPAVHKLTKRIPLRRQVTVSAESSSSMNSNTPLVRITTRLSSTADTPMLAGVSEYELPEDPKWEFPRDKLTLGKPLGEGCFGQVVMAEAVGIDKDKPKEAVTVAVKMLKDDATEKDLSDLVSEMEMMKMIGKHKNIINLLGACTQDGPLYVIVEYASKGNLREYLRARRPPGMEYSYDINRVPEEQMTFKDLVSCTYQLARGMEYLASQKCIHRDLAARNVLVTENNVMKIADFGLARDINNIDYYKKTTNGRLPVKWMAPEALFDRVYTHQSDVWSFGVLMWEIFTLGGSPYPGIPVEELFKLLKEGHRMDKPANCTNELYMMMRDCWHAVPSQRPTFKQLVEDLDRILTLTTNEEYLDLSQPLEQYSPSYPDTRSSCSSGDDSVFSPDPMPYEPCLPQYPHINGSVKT
Sequence of Insulin-like growth factor 1 receptor (Homo sapiens) (P08069 31-736 limits assumed): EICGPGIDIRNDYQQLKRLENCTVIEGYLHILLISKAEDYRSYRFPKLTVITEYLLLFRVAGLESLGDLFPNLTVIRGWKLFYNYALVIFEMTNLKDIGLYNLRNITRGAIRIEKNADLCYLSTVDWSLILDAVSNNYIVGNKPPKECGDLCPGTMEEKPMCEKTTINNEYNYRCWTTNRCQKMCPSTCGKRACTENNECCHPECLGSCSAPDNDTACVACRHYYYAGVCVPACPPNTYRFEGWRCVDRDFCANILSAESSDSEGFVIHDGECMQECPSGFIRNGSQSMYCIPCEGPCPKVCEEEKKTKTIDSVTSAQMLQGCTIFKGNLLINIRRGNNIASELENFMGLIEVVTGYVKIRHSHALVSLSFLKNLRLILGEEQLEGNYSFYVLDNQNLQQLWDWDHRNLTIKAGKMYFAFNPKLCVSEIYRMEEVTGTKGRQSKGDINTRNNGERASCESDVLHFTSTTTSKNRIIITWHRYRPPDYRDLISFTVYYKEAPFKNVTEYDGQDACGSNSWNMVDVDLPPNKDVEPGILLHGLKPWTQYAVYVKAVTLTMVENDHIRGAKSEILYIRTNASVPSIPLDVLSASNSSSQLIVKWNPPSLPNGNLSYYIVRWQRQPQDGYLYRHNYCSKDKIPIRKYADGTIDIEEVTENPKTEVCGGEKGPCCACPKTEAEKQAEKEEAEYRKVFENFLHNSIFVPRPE
Sequence of Insulin-like growth factor 1 receptor (Homo sapiens) (P08069 741-1367 limits assumed): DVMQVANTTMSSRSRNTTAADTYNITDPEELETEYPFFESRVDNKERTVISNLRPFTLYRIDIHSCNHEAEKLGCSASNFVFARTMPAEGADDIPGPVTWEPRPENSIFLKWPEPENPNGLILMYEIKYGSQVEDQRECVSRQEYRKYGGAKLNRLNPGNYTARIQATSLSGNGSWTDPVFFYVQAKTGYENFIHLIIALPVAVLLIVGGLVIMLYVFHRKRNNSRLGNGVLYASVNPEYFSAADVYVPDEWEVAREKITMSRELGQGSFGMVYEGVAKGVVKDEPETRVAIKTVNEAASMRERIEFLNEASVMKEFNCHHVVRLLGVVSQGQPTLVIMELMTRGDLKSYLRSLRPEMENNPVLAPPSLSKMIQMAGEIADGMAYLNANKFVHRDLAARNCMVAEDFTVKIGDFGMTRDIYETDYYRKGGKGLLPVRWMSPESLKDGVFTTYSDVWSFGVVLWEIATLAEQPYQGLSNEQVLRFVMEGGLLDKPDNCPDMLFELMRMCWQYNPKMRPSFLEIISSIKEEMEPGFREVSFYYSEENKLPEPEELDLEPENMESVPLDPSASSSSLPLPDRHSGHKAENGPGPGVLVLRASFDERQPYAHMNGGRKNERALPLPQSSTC

Molecule `CCCCCCCC(=O)Nc1nc2[nH]c(CN3CCN(Cc4cccc(F)c4)CC3)c(CN3CCN(Cc4cccc(F)c4)CC3)c2c(=O)[nH]1` has a GI50 (TK-10 [1]) of 1.74 µM, a TGI (TK-10 [1]) of 3.26 µM and a CC50 (TK-10 [1]; TK-10, 48 h, read-out: LC50 (the source's name)) of 6.11 µM. For the same molecule, the inhibition [2] was 25.9%, the growth at 0.1 µM (A549) was 98% and the growth at 0.01 µM (SR) was 92%. The growth at 100 µM (MOLT-4) was -7%, the growth at 1 µM (MCF7) was -51% and the growth at 0.01 µM (LOX IMVI) was 87%. The AUC(0-inf) [3] was 0.498 µg·h/mL, the TGI (HOP-92; 48 h) was 2.42 µM and 0.82 µM and the GI50 (HOP-92; Homo sapiens, HOP-92) was 1.14 µM. It also gave an LC50 (HOP-92; Homo sapiens, HOP-92) of 5.14 µM, a growth at 100 µM (K562) of -1% and a growth at 100 µM (SF-295) of -81%. It also gave a growth at 100 µM (HCC 2998 [4]) of -79%, a growth at 0.01 µM (HCC 2998 [5]) of 99% and a growth at 0.01 µM (HCT-15) of 98%. It also gave a growth at 10 µM (Malme-3M [6]) of -83.1%, a GI50 (NCI-H460 [7]; 48 h) of 0.38 µM and an LC50 (NCI-H460 [7]; Homo sapiens, NCI-H460) of 4.31 µM. The TGI (NCI-H460 [7]; Homo sapiens, NCI-H460) was 1.3 µM, the GI50 (NCI-H460 [7]; Homo sapiens, NCI-H460, 48 h) was 0.383 µM and the growth at 1 µM (SN12C [8]) was 76%. It also gave a GI50 (Malme-3M [9]) of 0.67 µM, a TGI (Malme-3M [9]; Homo sapiens, Malme-3M) of 2.24 µM and a GI50 (Malme-3M [9]; Homo sapiens, Malme-3M) of 0.672 µM. The CC50 (Malme-3M [9]; Homo sapiens, Malme-3M, read-out: LC50 (the source's name)) was 6.11 µM, the growth at 0.1 µM (Hs-578T) was 96% and the inhibition [10] was 70.3%. It also gave a growth at 0.1 µM (NCI-H460 [11]) of 105%, a growth at 0.1 µM (TK-10 [12]) of 96% and a growth at 1 µM (UACC-62) of 92%. For the same molecule, the GI50 (SK-MEL-5; Homo sapiens) was 1.57 µM, the TGI (SK-MEL-5; Homo sapiens) was 3.03 µM and the CC50 (SK-MEL-5; Homo sapiens, SK-MEL-5, 48 h) was 5.87 µM. The growth at 0.1 µM (HCT-116) was 93%, the growth at 0.1 µM (SN12C [13]) was 98% and the growth at 1 µM (SNB-75) was 71%. The growth at 0.01 µM (MDA-MB-435) was 99%, the growth at 0.01 µM (SW-620) was 96% and the AUC(0-inf) [14] was 0.0617 µg·h/mL. It also gave a growth at 0.01 µM (RPMI-8226) of 101%, a GI50 (HL-60(TB)) of 1.74 µM and a TGI (HL-60(TB)) of 3.75 µM.
Work on `Nc1nc2[nH]c(CN3CCN(c4cc(Cl)cc(Cl)c4)CC3)c(CN3CCN(c4cc(Cl)cc(Cl)c4)CC3)c2c(=O)[nH]1` yielded a GI50 (TK-10 [1]) of 1.8 µM, a TGI (TK-10 [1]) of 3.26 µM and an inhibition [2] of -0.49%. It also gave a growth at 0.1 µM (A549) of 94%, a growth at 0.01 µM (SR) of 102% and a growth at 100 µM (MOLT-4) of -7%. The growth at 1 µM (MCF7) was 79%, the growth at 0.01 µM (LOX IMVI) was 99% and the GI50 (HOP-92; Homo sapiens, HOP-92) was 1.35 µM. For the same molecule, the TGI (HOP-92; Homo sapiens, HOP-92, 48 h) was 3.54 µM, the growth at 100 µM (K562) was 3% and the growth at 0.1 µM (ACHN) was 98%. The growth at 100 µM (SF-295) was -33%, the growth at 100 µM (HCC 2998 [4]) was -38% and the growth at 0.01 µM (HCC 2998 [5]) was 106%. For the same molecule, the growth at 0.01 µM (HCT-15) was 98%, the growth at 10 µM (Malme-3M [6]) was 74.3% and the TGI (NCI-H460 [7]; Homo sapiens, NCI-H460) was 3.94 µM. The GI50 (NCI-H460 [7]; Homo sapiens, NCI-H460, 48 h) was 1.96 µM, the growth at 1 µM (SN12C [8]) was 95% and the TGI (Malme-3M [9]; Homo sapiens, Malme-3M) was 3.93 µM. It also gave a GI50 (Malme-3M [9]; Homo sapiens, Malme-3M) of 2 µM, a growth at 0.1 µM (Hs-578T) of 88% and a growth at 0.1 µM (NCI-H460 [11]) of 104%. For the same molecule, the growth at 0.1 µM (TK-10 [12]) was 103%, the growth at 1 µM (UACC-62) was 96% and the CC50 (SK-MEL-5; 48 h) was 2.89 µM. For the same molecule, the GI50 (SK-MEL-5; Homo sapiens) was 1.63 µM, the TGI (SK-MEL-5; Homo sapiens) was 3.07 µM and the CC50 (SK-MEL-5; Homo sapiens, SK-MEL-5, 48 h) was 5.76 µM. For the same molecule, the growth at 0.1 µM (HCT-116) was 99%, the growth at 0.1 µM (SN12C [13]) was 99% and the growth at 10 µM (OVCAR-5) was 92.2%. It also gave a growth at 1 µM (SNB-75) of 76%, a growth at 0.01 µM (SF-539) of 89% and a growth at 0.01 µM (MDA-MB-435) of 89%. For the same molecule, the growth at 100 µM (SK-MEL-2) was -48%, the growth at 0.01 µM (SW-620) was 96% and the growth at 0.01 µM (RPMI-8226) was 102%. It also gave a growth at 100 µM (SK-MEL-28) of -42%.
